Results on 13 molecules are retold here after patent publication US10696693B2, “Fused imidazole derivatives as TGF-beta inhibitors” (Rigel Pharmaceuticals, Inc., priority 2014, dated 2020).

In one assay the test system is GDF8. Put plainly: AlphaScreen SureFire p-SMAD3 (Ser423/425) assay, GDF8-stimulated cells. It is filed as cell-based. Particulars: Mus musculus. In short, it runs like this:
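Lysate (5 μL) went into 384-well shallow plates with 5 μL of Reaction Buffer, Activation Buffer and AlphaScreen Acceptor bead mix. Plates were sealed, kept dark and shaken for 2 hours at room temperature. Donor beads in dilution buffer (2 μL) were added for another 1½ hours, and p-SMAD3 signal was read on a Synergy-4 or Enspire reader.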

The test system of a further assay is TGF-β. Nature of the assay: AlphaScreen SureFire p-SMAD3 (Ser423/425) assay, TGF-β-stimulated cells. It is filed as cell-based. To be noted: Mus musculus. In short, it runs like this: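 The p-SMAD-3 (Ser423/425) SureFire assay measured phosphorylation of endogenous SMAD-3 in cell lysates. Cells were plated overnight in collagen-coated plates, exposed to three-fold serially diluted compounds for about 10 minutes, then stimulated with TGFβ. Lysates (5 μL) received acceptor bead mix for 2 hours, then donor beads for 1½ hours before AlphaScreen reading.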
A general note: In Alpha technology, singlet oxygen from a donor bead excites a nearby acceptor bead.

[1] abbreviates: MPC-11, read-out: GDF8: inhibition of GDF8 signaling, GDF pSMAD (MPC11), p-SMAD3 (Ser423/425) AlphaScreen in cell lysate, GDF8 stimulation.
Setting [2] is: MPC-11, read-out: TGF-β: inhibition of TGF-β signaling, TGF-β pSMAD (MPC-11), p-SMAD3 (Ser423/425) AlphaScreen in cell lysate, TGF-β stimulation.
Setting [3] is: MPC-11, p-SMAD3 (Ser423/425) AlphaScreen in cell lysate, MPC11, GDF8 stimulation, read-out: GDF8: inhibition of GDF8 signaling, GDF pSMAD (MPC11).
Setting [4] is: p-SMAD3 (Ser423/425) AlphaScreen in cell lysate, MPC-11, TGF-β stimulation, read-out: TGF-β: inhibition of TGF-β signaling, TGF-β pSMAD (MPC-11).

Where two headings read alike, the source gives them in different places.

For `OCC1CCC2(CC1)Cc1nc(-c3ccc(F)cc3)c(-c3ccc4ncsc4c3)n1C2` (centres unmarked) [Compound 335, (3′-(benzo[d]thiazol-6-yl)-2′-(4-fluorophenyl)-5′H,7′H-spiro[cyclohexane-1,6′-pyrrolo[1,2-a]imidazol]-4-yl)methanol], the IC50 in the assay with GDF8 (setting [1]) and with TGF-β (setting [2]) was more than 1000 nM throughout.

`OCC1CCC2(CC1)Cc1nc(-c3ccc(F)cc3)c(-c3ccc4nccnc4c3)n1C2` (centres unmarked) [Compound 336, (2′-(4-fluorophenyl)-3′-(quinoxalin-6-yl)-5′H,7′H-spiro[cyclohexane-1,6′-pyrrolo[1,2-a]imidazol]-4-yl)methanol]: the IC50 in the assay with GDF8 (setting [1]) and with TGF-β (setting [2]) was more than 1000 nM throughout.

In the case of `Fc1ccc(Cl)cc1-c1nc2n(c1-c1ccc3nccnc3c1)CCC2` [Compound 337, 6-(2-(5-chloro-2-fluoropheny)-6,7-dihydro-5H-pyrrolo[1,2-a]imidazol-3-yl)quinoxaline], the IC50 in the assay with GDF8 (setting [3]) and with TGF-β (setting [4]) was less than 50 nM each time.

On to `Fc1ccc(Cl)cc1-c1nc2n(c1-c1ccc3ncccc3c1)CCC2` [Compound 338, 6-(2-(5-chloro-2-fluoropheny)-6,7-dihydro-5H-pyrrolo[1,2-a]imidazol-3-yl)quinoline], for which the IC50 with GDF8 (setting [3]) and with TGF-β (setting [4]) was less than 50 nM throughout.

Regarding `Fc1ccc(Cl)cc1-c1nc2n(c1-c1ccc3ncsc3c1)CCC2` [Compound 339, 6-(2-(5-chloro-2-fluoropheny)-6,7-dihydro-5H-pyrrolo[1,2-a]imidazol-3-yl)benzo[d]thiazole], the IC50 in the assay on GDF8 (setting [3]) and in the assay on TGF-β (setting [4]) was less than 50 nM each time.

For the molecule `Cc1ccc(Cl)cc1-c1nc2n(c1-c1ccc3ncccc3c1)CCC2` [Compound 340, 6-(2-(5-chloro-2-methylpheny)-6,7-dihydro-5H-pyrrolo[1,2-a]imidazol-3-yl)quinoline], the IC50 in the assay with GDF8 (setting [3]) and with TGF-β (setting [4]) was 100 to 1000 nM throughout.

For the molecule `Cc1ccc(-c2ccc3nccnc3c2)cc1-c1nc2n(c1-c1ccc3nccnc3c1)CCC2` [Compound 341, 6-(4-methyl-3-(3-(quinoxalin-6-yl)-6,7-dihydro-5H-pyrrolo[1,2-a]imidazol-2-yl)phenyl)quinoxaline], the IC50 in the assay on GDF8 (setting [1]) and in the assay on TGF-β (setting [2]) was more than 1000 nM throughout.

For `Cc1ccc(Cl)cc1-c1nc2n(c1-c1ccc3nccnc3c1)CCC2` [Compound 342, 6-(2-(5-chloro-2-methylpheny)-6,7-dihydro-5H-pyrrolo[1,2-a]imidazol-3-yl)quinoxaline], the IC50 with GDF8 (setting [3]) and in the assay with TGF-β (setting [4]) was 100 to 1000 nM throughout.

Turning to `Clc1ccc(Cl)c(-c2nc3n(c2-c2ccc4ncccc4c2)CCC3)c1` [Compound 343, 6-(2-(2,5-dichlorophenyl)-6,7-dihydro-5H-pyrrolo[1,2-a]imidazol-3-yl)quinoline], the IC50 with GDF8 (setting [1]) and in the assay with TGF-β (setting [2]) was 100 to 1000 nM throughout.

Turning to `Nc1ncnc2ccc(-c3c(-c4cc(F)cc(F)c4F)nc4n3CCC4)cc12` [Compound 344, 6-(2-(2,3,5-trifluorophenyl)-6,7-dihydro-5H-pyrrolo[1,2-a]imidazol-3-yl)quinazolin-4-amine], the IC50 in the assay on GDF8 (setting [3]) and in the assay with TGF-β (setting [4]) was 100 to 1000 nM throughout.

`Nc1ncnc2ccc(-c3c(-c4cc(F)c(F)cc4F)nc4n3CCC4)cc12` [Compound 345, 6-(2-(2,4,5-trifluorophenyl)-6,7-dihydro-5H-pyrrolo[1,2-a]imidazol-3-yl)quinazolin-4-amine]: the IC50 in the assay with GDF8 (setting [3]) was less than 50 nM; in the assay with TGF-β (setting [4]), 50 to 100 nM.

With `Nc1ncnc2ccc(-c3c(-c4cc(Cl)ccc4F)nc4n3CCC4)cc12` [Compound 346, 6-(2-(5-chloro-2-fluorophenyl)-6,7-dihydro-5H-pyrrolo[1,2-a]imidazol-3-yl)quinazolin-4-amine], the IC50 with GDF8 (setting [3]) and in the assay with TGF-β (setting [4]) was less than 50 nM each time.

As to `Nc1ncnc2ccc(-c3c(-c4ccc(F)c(Cl)c4)nc4n3CCC4)cc12` [Compound 347, 6-(2-(3-chloro-4-fluorophenyl)-6,7-dihydro-5H-pyrrolo[1,2-a]imidazol-3-yl)quinazolin-4-amine], the IC50 in the assay with GDF8 (setting [3]) and in the assay on TGF-β (setting [4]) was 50 to 100 nM each time.
